Measurements taken from patent US10407467B2, “Polymyxin derivatives and their use in combination therapy together with different antibiotics” (priority 2013, dated 2019).
Counter-ions that a name gives are not always drawn. Numbered stars: 1 amine (or outer) side, 2 acyl side, 3 side chain; on linkers, the order of the positions; unused ones are H or OH. Bridge positions count the residues as written; N and C are the ends. Square brackets hold non-standard residues; d marks the D form. Peptide text beside a SMILES is read from it. * marks the point of attachment. ξ: configuration not given here. Acetyl(cis-4-NH-cyclohexyl) = O=C(C[C@H]1CC[C@@H](N[*:1])CC1)[*:2]; ξβ3hGly(cHex) = NC(CC(=O)*)C1CCCCC1; X8 = N[C@@H]1CC[C@H](C(=O)*)C1; Thr(3ξ) = CC(O)[C@H](N)C(=O)O; X11 = O=C(C(O)c1cccc(Br)c1)*; X5 = O=C(C[C@@H]1CCCCN1)*; Dab = NCC[C@H](N)C(=O)O

Tests used:
Test in all cases: MIC, compound in combination with a second agent (broth microdilution)
Type in all cases: cell-based
Conditions in all cases: 1:1 (wt:wt) combination with Rifampicin
[1] = system: Acinetobacter baumannii
In short: (§1)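 Susceptibility was tested on up to four strains of each pathogen with the compound paired 1:1 by weight alongside another antibacterial. Values count both components together and use the lower duplicate if replicates agreed within 2-fold.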

[2] = system: Escherichia coli
In short: as §1

[3] = system: Klebsiella pneumoniae
In short: as §1

[4] = system: Pseudomonas aeruginosa
In short: as §1

[5] = MIC = total drug concentration, strain ATCC BAA-747
[6] = MIC = total drug concentration, strain CCUG57249
[7] = MIC = total drug concentration, strain NCTC 13423
[8] = MIC = total drug concentration, strain NCTC 13424
[9] = MIC = total drug concentration, strain ATCC25922
[10] = MIC = total drug concentration, strain NCTC9001
[11] = MIC = total drug concentration, strain ATCC-BAA-2146
[12] = MIC = total drug concentration, strain CCUG-59348
[13] = MIC = total drug concentration, strain NCTC 13438
[14] = MIC = total drug concentration, strain ATCC 27853
[15] = MIC = total drug concentration, strain ATCC CRM-9027
[16] = MIC = total drug concentration, strain ATCC-47
[17] = MIC = total drug concentration, strain CCUG 59626
[18] = MIC is total drug concentration

Structure (SMILES) | MIC A. baumannii ATCC BAA-747 [1, 5] [micrograms/mL] | MIC A. baumannii CCUG57249 [1, 6] [micrograms/mL] | MIC A. baumannii NCTC 13423 [1, 7] [micrograms/mL] | MIC A. baumannii NCTC 13424 [1, 8] [micrograms/mL] | MIC E. coli ATCC25922 [2, 9] [micrograms/mL] | MIC E. coli NCTC9001 [2, 10] [micrograms/mL] | MIC K. pneumoniae ATCC-BAA-2146 [3, 11] [micrograms/mL] | MIC K. pneumoniae CCUG-59348 [3, 12] [micrograms/mL] | MIC K. pneumoniae NCTC 13438 [3, 13] [micrograms/mL] | MIC P. aeruginosa ATCC 27853 [4, 14] [micrograms/mL] | MIC P. aeruginosa ATCC CRM-9027 [4, 15] [micrograms/mL] | MIC P. aeruginosa ATCC-47 [4, 16] [micrograms/mL] | MIC P. aeruginosa CCUG 59626 [4, 17] [micrograms/mL] | also measured
CC(C)C[C@@H]1NC(=O)[C@@H](CC(C)C)NC(=O)[C@H](CCN)NC(=O)[C@@H](NC(=O)[C@H](CCN)NC(=O)[C@@H](NC(=O)C(O)C2CCCCC2)C(C)O)CCNC(=O)[C@H](C(C)O)NC(=O)[C@H](CCN)NC(=O)[C@H](CCN)NC1=O (single isomer, unassigned; isomer 1) [Example 31, 2(RS)-(2-Hydroxy-2-cyclohexyl)ethanoyl polymyxin E nonapeptide, TFA salt. Isomer 1] | 0.25 | 0.25 | 0.25 | 0.5 | 0.25 | 0.5 | 2 | 2 | 1 | 0.5 | 0.5 | 0.5 | 0.25 | –
CC(C)C[C@@H]1NC(=O)[C@@H](Cc2ccccc2)NC(=O)[C@H](CCN)NC(=O)[C@@H](NC(=O)[C@H](CCN)NC(=O)[C@@H](NC(=O)C(O)c2cccc(Br)c2)C(C)O)CCNC(=O)[C@H](C(C)O)NC(=O)[C@H](CCN)NC(=O)[C@H](CCN)NC1=O (stereo partly drawn) [Example 18] (X11-[Thr(3ξ)][Dab][Dab][Dab][dF]L[Dab][Dab][Thr(3ξ)]; lactam 3-C) | – | ≤0.06 | 0.125 | 0.125 | 0.125 | 1 | 0.5 | 2 | 0.5 | 0.25 | 1 | 0.5 | 0.25 | MIC K. pneumoniae ATCC 4352 ([3]; MIC = total drug concentration, strain ATCC 4352): 0.125 micrograms/mL
CC(C)C[C@@H]1NC(=O)[C@@H](CC(C)C)NC(=O)[C@H](CCN)NC(=O)[C@@H](NC(=O)[C@H](CCN)NC(=O)[C@@H](NC(=O)CC(N)C2CCCCC2)C(C)O)CCNC(=O)[C@H](C(C)O)NC(=O)[C@H](CCN)NC(=O)[C@H](CCN)NC1=O (stereo partly drawn) [Example 30, 3(R,S)-3-Amino-3-cyclohexane-propanoyl]Polymyxin E nonapeptide, TFA salt] ({ξβ3hGly(cHex)}-[Thr(3ξ)][Dab][Dab][Dab][dL]L[Dab][Dab][Thr(3ξ)]; lactam 3-C) | ≤0.06 | 0.125 | ≤0.06 | <0.06 | 0.25 | – | 0.25 | 2 | 0.5 | 0.25 | 0.125 | 0.125 | 0.25 | –
CC(C)C[C@@H]1NC(=O)[C@@H](Cc2ccccc2)NC(=O)[C@H](CCN)NC(=O)[C@@H](NC(=O)[C@H](CCN)NC(=O)[C@@H](NC(=O)C[C@@H]2CCCCN2)C(C)O)CCNC(=O)[C@H](C(C)O)NC(=O)[C@H](CCN)NC(=O)[C@H](CCN)NC1=O (stereo partly drawn) [Example 33, (2S)-piperidin-2-yl-ethanoyl polymyxin B nonapeptide, trifluoroacetate salt] (X5-[Thr(3ξ)][Dab][Dab][Dab][dF]L[Dab][Dab][Thr(3ξ)]; lactam 3-C) | ≤0.06 | ≤0.06 | ≤0.06 | ≤0.06 | ≤0.06 | 0.125 | 0.125 | 2 | 0.125 | ≤0.06 | ≤0.06 | ≤0.06 | ≤0.06 | MIC A. baumannii ATCC BAA-747 [1, 18]: ≤0.06 micrograms/mL; MIC A. baumannii CCUG57249 [1, 18]: ≤0.06 micrograms/mL; MIC A. baumannii NCTC 13423 [1, 18]: ≤0.06 micrograms/mL; MIC A. baumannii NCTC 13424 [1, 18]: ≤0.06 micrograms/mL; MIC E. coli ATCC25922 [2, 18]: ≤0.06 micrograms/mL; MIC E. coli NCTC9001 [2, 18]: 0.125 micrograms/mL; MIC K. pneumoniae ATCC-BAA-2146 [3, 18]: 0.125 micrograms/mL; MIC K. pneumoniae CCUG-59348 [3, 18]: 2 micrograms/mL; MIC K. pneumoniae NCTC 13438 [3, 18]: 0.125 micrograms/mL; MIC P. aeruginosa ATCC 27853 [4, 18]: ≤0.06 micrograms/mL; MIC P. aeruginosa ATCC CRM-9027 [4, 18]: ≤0.06 micrograms/mL; MIC P. aeruginosa ATCC-47 [4, 18]: ≤0.06 micrograms/mL; MIC P. aeruginosa CCUG 59626 [4, 18]: ≤0.06 micrograms/mL
CC(C)C[C@@H]1NC(=O)[C@@H](Cc2ccccc2)NC(=O)[C@H](CCN)NC(=O)[C@@H](NC(=O)[C@H](CCN)NC(=O)[C@@H](NC(=O)[C@H]2CC[C@@H](N)C2)C(C)O)CCNC(=O)[C@H](C(C)O)NC(=O)[C@H](CCN)NC(=O)[C@H](CCN)NC1=O (stereo partly drawn) [Example 34A, (1S,3R)-3- Aminocyclopentane carbonyl polymyxin B nonapeptide, trifluoroacetate salt] (X8-[Thr(3ξ)][Dab][Dab][Dab][dF]L[Dab][Dab][Thr(3ξ)]; lactam 3-C) | ≤0.06 | ≤0.06 | ≤0.06 | ≤0.06 | – | 0.125 | 0.125 | 4 | 0.25 | 0.125 | – | 0.125 | 0.125 | MIC E. coli ATCC25922 ([2]; MIC = total drug concentration, strain ATCC25922, trifluoroacetate salt): ≤0.06 micrograms/mL; MIC P. aeruginosa ATCC CRM-9027 ([4]; MIC = total drug concentration, strain ATCC CRM-9027, trifluoroacetate salt): 0.125 micrograms/mL
CC(C)C[C@@H]1NC(=O)[C@@H](Cc2ccccc2)NC(=O)[C@H](CCN)NC(=O)[C@@H](NC(=O)[C@H](CCN)NC(=O)[C@@H](NC(=O)C[C@H]2CC[C@@H](N)CC2)C(C)O)CCNC(=O)[C@H](C(C)O)NC(=O)[C@H](CCN)NC(=O)[C@H](CCN)NC1=O (stereo partly drawn) [Example 36, Cis-2-(4-aminocyclohexane) ethanoyl polymyxin B nonapeptide, trifluoroacetate salt] ({Acetyl(cis-4-NH-cyclohexyl)}-[Thr(3ξ)][Dab][Dab][Dab][dF]L[Dab][Dab][Thr(3ξ)]; lactam 3-C) | 0.125 | 0.25 | 0.125 | 0.5 | 0.25 | 0.125 | 0.5 | 4 | 1 | 0.25 | 0.25 | 0.125 | 0.25 | –
